{"source": "patent US20050113579A1", "about": "“Naphthalimide synthesis including amonafide synthesis and pharmaceutical preparations thereof” (ChemGenex Therapeutics, Inc., priority 2002, published 2005)", "key": {"[1]": {"conditions": "free base; background statement; cited from earlier work"}, "[2]": {"test": "Osmolality of the product", "format": "physicochemical"}, "[3]": {"test": "physchem", "format": "physicochemical", "procedure": "Precipitation occurs as pH increases above 6.5. Solubility is about 1 mg/mL at pH 9 and 0.05 mg/mL at pH 11."}, "[4]": {"test": "Titration with sodium hydroxide", "format": "physicochemical", "procedure": "561 mg amonafide dihydrochloride (1.57 mmol) was dissolved in 10 mL water to yield a clear red solution with pH at 1.2. With constant stirring, 1N NaOH solution was added. Solution remained clear until pH greater than 6.7. As shown in the titration curve below, 3.3 mmol NaOH was used to neutralize amonafide dihydrochloride in the solution. The calculated mol ratio of amonafide to NaOH was 1:2. [drawing]"}, "[5]": {"test": "Solubility in water (general statements)", "format": "physicochemical", "conditions": "general statement"}}, "note": "Where a name gives a salt, the structure may show the parent alone.", "data": [{"smiles": "CN(C)CCN1C(=O)c2cccc3cc(N)cc(c23)C1=O", "note": "[Amonafide, 5-amino-2-[(dimethylamine)ethyl]-1H-benz[de-]isoquinoline-1,3-(2H)-dione]", "values": [{"measurement": "solubility in water", "setting": "[1]", "value": "very poorly soluble"}]}, {"smiles": "CN(C)CCN1C(=O)c2cccc3cc(N)cc(c23)C1=O", "note": "[amonafide dihydrochloride]", "values": [{"measurement": "osmolality", "setting": "[2]", "value": "equivalent to 0.9% sodium chloride solution"}, {"measurement": "pH above which precipitation occurs", "setting": "[3]; as pH increases", "value": "above 6.5"}, {"measurement": "solubility", "setting": "[3]; pH 1, water", "value": "> 250000", "unit": "µg/mL"}, {"measurement": "solubility", "setting": "[3]; pH 9, aqueous buffer", "value": "~1000", "unit": "µg/mL"}, {"measurement": "solubility", "setting": "[3]; pH 11, aqueous buffer", "value": 50, "unit": "µg/mL"}, {"measurement": "pH of solution", "setting": "[4]; 561 mg (1.57 mmol) dissolved in 10 mL water, clear red solution", "value": 1.2}, {"measurement": "pH until which solution remained clear", "setting": "[4]; 1N NaOH added with constant stirring", "value": "greater than 6.7"}, {"measurement": "solubility in water compared to monohydrochloride salt", "setting": "[5]", "value": "more soluble in water"}]}]}
